Test results as given in US12617780B2, “Benzothiophene, thienopyridine and thienopyrimidine derivatives for the modulation of sting” (CTXT PTY LTD, priority 2019, dated 2026).

What was measured:
huSTING (HAQ) = molecular target: T1, huSTING (HAQ) (Homo sapiens, UniProt Q86WV6, G230A/H232R/R293Q); experiment: Surface Plasmon Resonance (SPR) STING (HAQ); format: binding; conditions: biotinylated STING on streptavidin chip, 8° C.; 50% occupancy as surrogate KD
T1 construct: made in house; host or cells: E. coli BL21 DE3
T1 sequence (Q86WV6 with tags, fused parts or gaps G230A/H232R/R293Q): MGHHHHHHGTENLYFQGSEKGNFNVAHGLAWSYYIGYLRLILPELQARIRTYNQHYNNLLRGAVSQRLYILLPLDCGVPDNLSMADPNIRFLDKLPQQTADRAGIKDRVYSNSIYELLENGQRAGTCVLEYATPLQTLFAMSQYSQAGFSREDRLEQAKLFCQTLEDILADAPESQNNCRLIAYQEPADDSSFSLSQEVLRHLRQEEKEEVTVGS
Source text: (§1) To determine binding affinities (50% occupancy as a surrogate Ko for the two binding events occurring) from dose-response experiments, binding responses at equilibrium were fit to a Hill equation, where the Hill coefficient was floated (52). For single-cycle kinetic experiments, sensorgrams were fit to a two-step kinetic model in which two analyte molecules bind sequentially (Biacore T200 or S200 Evaluation Software).

[1] = molecular target: T2, human HAQ isoform of STING (Homo sapiens, UniProt Q86WV6, G230A/H232R/R293Q/R71H); experiment: THP-1 STING Lucia ISG reporter cell line assay; format: cell-based; conditions: 24 h incubation, QUANTI-Luc luminescence; normalised to 40 μM ML RR-S2 CDA; read-out: EC50 THP-1 STING Lucia ISG cells
T2 construct: host or cells: THP-1 STING Lucia ISG cells
T2 sequence (Q86WV6 whole entry R71H/G230A/H232R/R293Q, canonical isoform): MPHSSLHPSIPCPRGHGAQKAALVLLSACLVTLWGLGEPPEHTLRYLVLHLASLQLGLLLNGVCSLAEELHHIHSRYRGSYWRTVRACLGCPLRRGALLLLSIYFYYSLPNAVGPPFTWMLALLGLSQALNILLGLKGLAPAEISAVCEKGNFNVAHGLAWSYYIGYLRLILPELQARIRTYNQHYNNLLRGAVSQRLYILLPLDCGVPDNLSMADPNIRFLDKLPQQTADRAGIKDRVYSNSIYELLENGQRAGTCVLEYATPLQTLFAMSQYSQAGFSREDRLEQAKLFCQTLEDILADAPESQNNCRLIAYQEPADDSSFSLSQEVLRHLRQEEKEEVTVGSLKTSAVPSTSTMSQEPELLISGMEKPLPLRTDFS
Experimental: (§2) THP-1 STING Lucia ISG cells (InvivoGen #thpl-isg) were cultured in RPMI-1640 containing 2 mM L-glutamine, 25 mM HEPES, 100 μg/mL Normocin (InvivoGen) and 10% heat-inactivated FBS. Cells were seeded at a density of 7×10^5 cells/mL, maintained at 37° C./5% CO2, and passaged every 3-4 days. Selection pressure was maintained by the addition of 100 μg/mL Zeocin every second passage.
(§3) Assay conditions: cells were harvested and resuspended at a concentration of 5×10^5 cells/mL in fresh growth media. Of this cell preparation 20 μL per well was dispensed into 384 well cell culture plates (Greiner, #781098X) and incubated at 37° C./5% CO2 for 2 hours.
(§4) Concentration Response Curves (commonly 11 doses) were prepared by 2.5 fold serial dilution starting from 10 mM compound stock solution in DMSO. Compound dilutions were transferred into the cell culture plates using a pintool (0.1 μL transfer), control wells were matched for DMSO. Positive control wells received ML RR-S2 CDA (Med Chem Express HY12885B) in 5 μL of media to a final concentration of 40 μM. All other wells received additional 5 μL of media only to equalise volume. The plates were incubated for 24 h at 37° C./5% CO2.
(§5) For the detection step, QUANTI-Luc (InvivoGen #rep-qlc1) was prepared according to manufacturer's instruction and 10 μL were added per well to the culture plates. Plates were shaken for ten seconds on an orbital shaker and left in the dark at room temperature for two minutes, before luminescence was read on a Perkin Elmer Envision plate reader.
(§6) Data analysis: Luminescence raw data was normalised % activity relative to the signal of the positive control wells and negative control wells which were not treated with compound. The following formula was used to calculate normalised % activity from raw signals: % activity=(sample−negative)/(positive−negative)
(§7) The THP-1 STING Lucia ISG cell EC50 provides an assessment of activity at the human HAQ isoform of STING. For assessing compound activity against the WT human STING isoform, an equivalent method was conducted where the cells used were THP-1-Dual KI-hSTING-R232 (InvivoGen #thpd-r232).

WT human STING isoform = molecular target: T3, WT human STING isoform (Homo sapiens, UniProt Q86WV6, H232R); experiment: THP-1-Dual KI-hSTING-R232 reporter cell line assay; format: cell-based; conditions: 24 h incubation, QUANTI-Luc luminescence; normalised to 40 μM ML RR-S2 CDA; read-out: EC50 THP-1 Dual KI-hSTING-R232 cells
T3 construct: host or cells: THP-1-Dual KI-hSTING-R232
T3 sequence (Q86WV6 whole entry H232R, canonical isoform): as the sequence (Q86WV6 whole entry R71H/G230A/H232R/R293Q, canonical isoform) above, with H71R, A230G, Q293R counted along it
Experimental: as §2, §3, §4, §5, §6, §7

huSTING (WT) = molecular target: T4, huSTING (WT) (Homo sapiens, UniProt Q86WV6, H232R); experiment: Surface Plasmon Resonance (SPR) STING (WT); format: binding; conditions: biotinylated STING on streptavidin chip, 8° C.; 50% occupancy as surrogate KD
T4 construct: made in house; host or cells: E. coli BL21 DE3
T4 sequence (Q86WV6 with tags, fused parts or gaps H232R): as the sequence (Q86WV6 with tags, fused parts or gaps G230A/H232R/R293Q) above, with A100G, Q163R counted along it
Source text: as §1

NC(=O)c1ccc2[nH]c(-c3c(C(=O)O)sc4cccc(Cl)c34)nc2c1Cl [Example 13, 3-(5-Carbamoyl-4-chloro-1H-benzo[d]imidazol-2-yl)-4-chlorobenzo[b]thiophene-2-carboxylic acid]
Kd (huSTING (HAQ)): 33300 nM
EC50 [1]: 6100 nM
EC50 (WT human STING isoform): 4380 nM

COc1c(C(N)=O)cc(F)c2[nH]c(-c3c(C(=O)O)sc4c(F)ccc(Cl)c34)nc12 [Example 21, 3-(5-Carbamoyl-7-fluoro-4-methoxy-1H-benzo[d]imidazol-2-yl)-4-chloro-7-fluorobenzo[b]thiophene-2-carboxylic acid]
EC50 [1]: 3590 nM
EC50 (WT human STING isoform): 4930 nM

CCOC(=O)c1sc2c(F)ccc(Cl)c2c1-c1nc2c(OC)c(C(N)=O)ccc2[nH]1 [Example 20, Ethyl 3-(5-carbamoyl-4-methoxy-1H-benzo[d]imidazol-2-yl)-4-chloro-7-fluorobenzo[b]thiophene-2-carboxylate]
EC50 [1]: 122 nM
EC50 (WT human STING isoform): 131 nM

CCOC(=O)c1sc2cccc(Cl)c2c1-c1nc2ccc(C(N)=O)cc2n1C (single isomer, unassigned) [Example 5.2, Ethyl 3-(6-carbamoyl-1-methyl-1H-benzo[d]imidazol-2-yl)-4-chlorobenzo[b]thiophene-2-carboxylate]
EC50 [1]: 2510 nM
EC50 (WT human STING isoform): 29400 nM

CCOC(=O)c1sc2c(F)ccc(Cl)c2c1-c1nc2c(OC)c(C(N)=O)cc(F)c2[nH]1 [Example 23, Ethyl 3-(5-carbamoyl-7-fluoro-4-methoxy-1H-benzo[d]imidazol-2-yl)-4-chloro-7-fluorobenzo[b]thiophene-2-carboxylate]
EC50 [1]: 115 nM
EC50 (WT human STING isoform): 119 nM

CCOC(=O)c1sc2c(F)ccc(Cl)c2c1-c1nc2c(OC)c(C(N)=O)cc(Cl)c2[nH]1 [Example 18, Ethyl 3-(5-carbamoyl-7-chloro-4-methoxy-1H-benzo[d]imidazol-2-yl)-4-chloro-7-fluorobenzo[b]thiophene-2-carboxylate]
EC50 [1]: 1830 nM
EC50 (WT human STING isoform): 2270 nM

CCOC(=O)c1sc2cccc(OC)c2c1-c1nc2c(OC)c(C(N)=O)ccc2[nH]1 [Example 19, Ethyl 3-(5-carbamoyl-4-methoxy-1H-benzo[d]imidazol-2-yl)-4-methoxybenzo[b]thiophene-2-carboxylate]
EC50 [1]: 28 nM
EC50 (WT human STING isoform): 82 nM

CCOC(=O)c1sc2cccc(Cl)c2c1-c1nc2cc(C(N)=O)ccc2n1C (single isomer, unassigned) [Example 5.1, Ethyl 3-(5-Carbamoyl-1-methyl-1H-benzo[d]imidazol-2-yl)-4-chlorobenzo[b]thiophene-2-carboxylate]
EC50 [1]: 8270 nM
EC50 (WT human STING isoform): 20100 nM

COc1c(C(N)=O)ccc2[nH]c(-c3c(C(=O)O)sc4cccc(OC)c34)nc12 [Example 22, 3-(5-Carbamoyl-4-methoxy-1H-benzo[d]imidazol-2-yl)-4-methoxybenzo[b]thiophene-2-carboxylic acid]
EC50 [1]: 9360 nM
EC50 (WT human STING isoform): 9040 nM

CCOC(=O)c1sc2cccc(Cl)c2c1-c1nc2cc(C(N)=O)ccc2[nH]1 [Example 1, Ethyl 3-(5-carbamoyl-1H-benzo[d]imidazol-2-yl)-4-chlorobenzo[b]thiophene-2-carboxylate]
EC50 [1]: 574 nM
EC50 (WT human STING isoform): 7070 nM

CCOC(=O)c1sc2c(F)ccc(Br)c2c1-c1nc2ccc(C(N)=O)c(OCC)c2[nH]1 [Example 14, Ethyl 4-bromo-3-(6-carbamoyl-7-ethoxy-1H-benzo[d]imidazol-2-yl)-7-fluorobenzo[b]thiophene-2-carboxylate]
EC50 [1]: 576 nM
EC50 (WT human STING isoform): 2720 nM

CCOc1c(C(N)=O)ccc2nc(-c3c(C(=O)O)sc4c(F)ccc(Br)c34)[nH]c12 [Example 15, 4-Bromo-3-(6-carbamoyl-7-ethoxy-1H-benzo[d]imidazol-2-yl)-7-fluorobenzo[b]thiophene-2-carboxylic acid]
Kd (huSTING (HAQ)): 55700 nM
EC50 [1]: > 40000 nM
EC50 (WT human STING isoform): > 40000 nM

COc1c(C(N)=O)ccc2nc(-c3c(C(=O)O)sc4c(F)ccc(Br)c34)[nH]c12 [Example 11, 4-Bromo-3-(6-carbamoyl-7-methoxy-1H-benzo[d]imidazol-2-yl)-7-fluorobenzo[b]thiophene-2-carboxylic acid]
Kd (huSTING (WT)): 1450 nM
Kd (huSTING (HAQ)): 140 nM
EC50 [1]: 651 nM
EC50 (WT human STING isoform): 1040 nM

CCOC(=O)c1sc2cccc(Cl)c2c1-c1nc2cc(C(N)=O)cc(F)c2[nH]1 [Example 3, Ethyl 3-(5-carbamoyl-7-fluoro-1H-benzo[d]imidazol-2-yl)-4-chlorobenzo[b]thiophene-2-carboxylate]
EC50 [1]: 455 nM
EC50 (WT human STING isoform): 2580 nM

CCOC(=O)c1sc2cccc(Cl)c2c1-c1nc2ccc(C(N)=O)c(OC)c2[nH]1 [Example 4, Ethyl 3-(6-carbamoyl-7-methoxy-1H-benzo[d]imidazol-2-yl)-4-chlorobenzo[b]thiophene-2-carboxylate]
EC50 [1]: 4.1 nM
EC50 (WT human STING isoform): 57 nM

CCOC(=O)c1sc2cccc(Cl)c2c1-c1nc2c(Cl)c(C(N)=O)ccc2[nH]1 [Example 12, Ethyl 3-(5-carbamoyl-4-chloro-1H-benzo[d]imidazol-2-yl)-4-chlorobenzo[b]thiophene-2-carboxylate]
EC50 [1]: 12 nM
EC50 (WT human STING isoform): 24 nM

NC(=O)c1ccc2[nH]c(-c3c(C(=O)O)sc4cccc(Cl)c34)nc2c1 [Example 2, 3-(5-Carbamoyl-1H-benzo[d]imidazol-2-yl)-4-chlorobenzo[b]thiophene-2-carboxylic acid]
Kd (huSTING (HAQ)): 42000 nM
EC50 [1]: 23900 nM
EC50 (WT human STING isoform): > 40000 nM

NC(=O)c1ccc2[nH]c(-c3c(C(=O)O)sc4c(F)ccc(Br)c34)nc2c1 [Example 8, 4-Bromo-3-(5-carbamoyl-1H-benzo[d]imidazol-2-yl)-7-fluorobenzo[b]thiophene-2-carboxylic acid]
Kd (huSTING (WT)): 91000 nM
Kd (huSTING (HAQ)): 6700 nM
EC50 [1]: 18300 nM
EC50 (WT human STING isoform): 16400 nM

COc1c(C(N)=O)ccc2nc(-c3c(C(=O)O)sc4cccc(Cl)c34)[nH]c12 [Example 9, 3-(6-Carbamoyl-7-methoxy-1H-benzo[d]imidazol-2-yl)-4-chlorobenzo[b]thiophene-2-carboxylic acid]
Kd (huSTING (WT)): 51000 nM
Kd (huSTING (HAQ)): 3100 nM
EC50 [1]: 2460 nM
EC50 (WT human STING isoform): 4670 nM

CCOC(=O)c1sc2c(Br)cnc(OC)c2c1-c1nc2c(OC)c(C(N)=O)ccc2[nH]1 [Example 16, Ethyl 7-bromo-3-(5-carbamoyl-4-methoxy-1H-benzo[d]imidazol-2-yl)-4-methoxythieno[3,2-c]pyridine-2-carboxylate]
EC50 [1]: 1550 nM
EC50 (WT human STING isoform): 2730 nM

COc1c(C(N)=O)ccc2[nH]c(-c3c(C(=O)O)sc4c(Br)cnc(OC)c34)nc12 [Example 17, 7-Bromo-3-(5-carbamoyl-4-methoxy-1H-benzo[d]imidazol-2-yl)-4-methoxythieno[3,2-c]pyridine-2-carboxylic acid]
Kd (huSTING (WT)): 19100 nM
Kd (huSTING (HAQ)): 3600 nM
EC50 [1]: > 40000 nM
EC50 (WT human STING isoform): > 40000 nM

CCOC(=O)c1sc2c(F)ccc(Br)c2c1-c1nc2cc(C(N)=O)ccc2[nH]1 [Example 7, Ethyl 4-bromo-3-(5-carbamoyl-1H-benzo[d]imidazol-2-yl)-7-fluorobenzo[b]thiophene-2-carboxylate]
EC50 [1]: 441 nM
EC50 (WT human STING isoform): 2120 nM

CCOC(=O)c1sc2c(F)ccc(Br)c2c1-c1nc2ccc(C(N)=O)c(OC)c2[nH]1 [Example 10, Ethyl 4-bromo-3-(6-carbamoyl-7-methoxy-1H-benzo[d]imidazol-2-yl)-7-fluorobenzo[b]thiophene-2-carboxylate]
EC50 [1]: 43 nM
EC50 (WT human STING isoform): 121 nM
